Publication PMC7033278, “A Nonpeptide Oxytocin Receptor Agonist for a Durable Relief of Inflammatory Pain” (Scientific Reports, 2020)
“Also recorded” adds a separate entry of the source.

Columns and labels:
[1] = system: CFA-induced mechanical hyperalgesia; assay: mechanical sensitivity, calibrated forceps, CFA model; format: in vivo; conditions: rat
Experimental: LIT-001 was prepared as described in Frantz et al.[20]. […] LIT-001 or vehicle were injected intraperitoneally (i.p.), in a volume of 10 ml/kg[20], 24 h after the induction of the CFA-induced painful inflammatory sensitization. To confirm the implication of the OTR we injected (i.p.) also L-368,899 (Sigma, St. Louis, MO) (1 mg/kg), an OTR antagonist, in combination with LIT-001 in another group of rats[11].
(§1) Male Wistar rats (300 g; JANVIER LABS, Le Genest St. Isle, France) were used for this study. They were housed by groups of 3 or 4 under standard conditions (room temperature, 22 °C; 12/12 h light/dark cycle) with ad libitum access to food and water and behavioral enrichment. All animals were manipulated and habituated to the tests and to the room for at least 2 weeks. All behavioral tests were done during the light period (i.e., between 7:00 and 19:00). All the procedures were performed in accordance with European committee council Direction, authorization from French Department of Agriculture and from the regional ethic committee.
In all experimentations, to test the animal mechanical sensitivity, we used a calibrated forceps (Bioseb, Chaville, France) previously developed in our laboratory (Figs. 2, 3 and S2, S3)[32]. Briefly, the habituated rat is loosely restrained with a towel masking the eyes in order to limit stress by environmental stimulations. The tips of the forceps are placed at each side of the paw and a graduate force is applied. The pressure producing a withdrawal of the paw, or in some rare cases a vocalization of the animal, corresponded to the nociceptive threshold value. This manipulation was performed three times for each hindpaw and the values were […].
(§2) In order to induce a peripheral inflammation, 100 μl of complete Freund adjuvant (CFA; Sigma, St. Louis, MO), was injected in the right hindpaw of the rat. All CFA injections were performed under light isoflurane anesthesia (3%).

[2] = system: V1bR (hV1BR); design: method as in PMID 30199637; conditions: cited from earlier work
[3] = target: T1, ionotropic TRPV1 receptor (Homo sapiens, UniProt Q8NER1); assay: Eurofins functional profiling, TRPV1 agonist/antagonist; format: cell-based; conditions: 5 μM
T1 construct: Eurofins (contract assay)
T1 sequence (Q8NER1 whole entry): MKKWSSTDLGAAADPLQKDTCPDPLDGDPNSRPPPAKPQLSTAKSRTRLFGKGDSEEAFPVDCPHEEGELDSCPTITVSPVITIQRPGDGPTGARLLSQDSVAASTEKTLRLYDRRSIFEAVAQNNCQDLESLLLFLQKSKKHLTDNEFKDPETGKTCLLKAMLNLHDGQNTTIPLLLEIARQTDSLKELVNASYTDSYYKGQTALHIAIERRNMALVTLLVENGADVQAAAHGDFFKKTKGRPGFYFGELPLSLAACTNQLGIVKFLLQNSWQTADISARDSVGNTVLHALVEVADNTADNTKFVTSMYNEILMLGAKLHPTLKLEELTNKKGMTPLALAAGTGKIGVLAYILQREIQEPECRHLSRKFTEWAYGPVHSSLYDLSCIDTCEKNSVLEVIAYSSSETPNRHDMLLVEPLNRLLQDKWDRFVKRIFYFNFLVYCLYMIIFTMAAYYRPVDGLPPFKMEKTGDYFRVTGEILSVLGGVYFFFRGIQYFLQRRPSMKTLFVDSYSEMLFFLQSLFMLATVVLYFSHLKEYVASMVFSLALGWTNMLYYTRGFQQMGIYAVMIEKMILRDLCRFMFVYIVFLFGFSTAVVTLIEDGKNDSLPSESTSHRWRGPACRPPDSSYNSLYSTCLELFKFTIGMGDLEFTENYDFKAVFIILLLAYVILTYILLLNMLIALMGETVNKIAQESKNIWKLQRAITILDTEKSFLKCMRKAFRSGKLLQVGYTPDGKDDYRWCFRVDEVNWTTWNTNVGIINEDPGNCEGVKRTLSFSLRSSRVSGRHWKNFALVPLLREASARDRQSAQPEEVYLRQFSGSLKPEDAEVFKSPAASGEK
Experimental: (§3) In vitro profiling of LIT-001 was performed by Eurofins as described in the Eurofins SafetyScreen-Functional panel, 2018[31]. The hepatotoxicity of LIT-001 was studied with cryo-preserved mouse hepatocytes. After unfreezing (optiTHAW and optiINCUBATE media, Xenotech) and cell viability control, cells (2 × 10^6 cells/ml) were dispatched in 96 well microtiterplates. LIT-001 was added to reach a concentration 1 μM in the presence of 1 × 10^6 cells/mL in a volume of 100 μl/well. The incubation was stopped at 4, 20, 40, 80 and 120 min in adding 100 μl of acetonitrile at 0 °C. A positive control was treated in the same conditions. All samples were analyzed by UHPLC coupled to a mass spectrometer (Shimadzu LC-MS 8030).

[4] = system: V1aR (hV1AR); design: method as in PMID 30199637; conditions: cited from earlier work
[5] = system: hOTR; design: method as in PMID 30199637; conditions: human receptor, cited from earlier work
[6] = system: 24 off-target GPCRs; assay: Eurofins SafetyScreen functional panel, GPCR agonist and antagonist profile; format: cell-based; conditions: 5 μM, 24 GPCRs
Experimental: as §3

[7] = target: hERG (Homo sapiens, UniProt Q12809); assay: hERG inhibition, patch clamp method; format: cell-based
hERG, sequence (Q12809 whole entry): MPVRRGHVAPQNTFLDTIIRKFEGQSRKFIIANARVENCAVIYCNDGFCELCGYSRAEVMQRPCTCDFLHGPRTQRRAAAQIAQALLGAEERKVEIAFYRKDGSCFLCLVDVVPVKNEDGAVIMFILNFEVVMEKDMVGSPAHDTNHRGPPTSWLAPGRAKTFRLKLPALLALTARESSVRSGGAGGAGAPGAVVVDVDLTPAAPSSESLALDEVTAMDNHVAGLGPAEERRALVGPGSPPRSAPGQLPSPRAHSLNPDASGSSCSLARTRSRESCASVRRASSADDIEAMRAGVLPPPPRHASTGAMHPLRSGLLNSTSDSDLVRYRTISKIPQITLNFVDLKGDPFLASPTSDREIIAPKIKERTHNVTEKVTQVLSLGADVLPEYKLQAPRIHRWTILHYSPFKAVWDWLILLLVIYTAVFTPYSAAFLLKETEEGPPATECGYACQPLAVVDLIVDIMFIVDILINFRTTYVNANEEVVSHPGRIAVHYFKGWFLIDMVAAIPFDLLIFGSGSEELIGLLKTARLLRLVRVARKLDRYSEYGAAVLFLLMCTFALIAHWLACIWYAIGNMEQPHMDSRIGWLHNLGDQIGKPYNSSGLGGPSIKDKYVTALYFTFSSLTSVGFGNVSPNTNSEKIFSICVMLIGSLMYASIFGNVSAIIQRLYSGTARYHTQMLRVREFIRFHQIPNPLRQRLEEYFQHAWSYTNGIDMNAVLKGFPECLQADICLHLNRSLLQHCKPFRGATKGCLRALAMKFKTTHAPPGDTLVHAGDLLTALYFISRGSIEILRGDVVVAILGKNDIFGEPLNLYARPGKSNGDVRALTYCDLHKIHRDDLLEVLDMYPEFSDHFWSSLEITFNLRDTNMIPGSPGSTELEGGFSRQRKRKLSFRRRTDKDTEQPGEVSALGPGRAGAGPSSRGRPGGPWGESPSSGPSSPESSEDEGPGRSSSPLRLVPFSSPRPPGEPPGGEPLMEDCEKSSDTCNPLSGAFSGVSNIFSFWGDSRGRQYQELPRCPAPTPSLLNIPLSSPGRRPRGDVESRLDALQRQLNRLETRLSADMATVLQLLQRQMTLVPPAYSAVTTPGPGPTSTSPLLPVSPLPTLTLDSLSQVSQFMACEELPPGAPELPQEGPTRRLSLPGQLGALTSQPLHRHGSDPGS

[8] = system: CFA-induced thermal heat hyperalgesia; assay: thermal heat sensitivity, Plantar test (Hargreaves), CFA model; format: in vivo; conditions: rat
Experimental: (§4) LIT-001 was prepared as described in Frantz et al.[20]. For in vivo biological assays, it was dissolved in carboxymethyl cellulose (CMC, 1%) - NaCl (0.9%) and administered at the dose of 10 mg/kg. LIT-001 or vehicle were injected intraperitoneally (i.p.), in a volume of 10 ml/kg[20], 24 h after the induction of the CFA-induced painful inflammatory sensitization. To confirm the implication of the OTR we injected (i.p.) also L-368,899 (Sigma, St. Louis, MO) (1 mg/kg), an OTR antagonist, in combination with LIT-001 in another group of rats[11].
as §1
To test the animal heat sensitivity, we used the Plantar test with Hargreaves method (Ugo Basile, Comerio, Italy) to compare the response of each hindpaw[33] when we tested healthy animals (unilateral intraplantar NaCl injection) and animals having received unilateral intraplantar CFA (Freund’s Complete Adjuvant) injection. The habituated rat is placed in a small box and we wait until the animal is calmed then we exposed the hindpaw to a radiant heat, the latency time of paw withdrawal was measured.
as §2

[9] = system: CFA-induced inflammatory pain model; assay: CFA-induced edema size (hindpaw diameter); format: in vivo; conditions: rat, i.p. LIT-001 10 mg/kg at D1 after CFA
Experimental: as §4, §1
In order to induce a peripheral inflammation, 100 μl of complete Freund adjuvant (CFA; Sigma, St. Louis, MO), was injected in the right hindpaw of the rat. […]

[10] = target: T2, human hERG potassium channel (Homo sapiens, UniProt Q12809); assay: ion channel blockade panel; format: cell-based; conditions: 5 μM
T2 construct: Eurofins (contract assay)
Experimental: as §3

[11] = target: T3, nAChR (alpha4/beta2) (Homo sapiens, UniProt P17787+P43681); assay: ion channel blockade panel; format: cell-based; conditions: 5 μM
T3 construct: Eurofins (contract assay)
Experimental: as §3

[12] = target: T4, Vav1.5 sodium channel (Homo sapiens, UniProt Q14524); assay: ion channel blockade panel; format: cell-based; conditions: 5 μM
T4 construct: Eurofins (contract assay)
T4 sequence (Q14524 whole entry): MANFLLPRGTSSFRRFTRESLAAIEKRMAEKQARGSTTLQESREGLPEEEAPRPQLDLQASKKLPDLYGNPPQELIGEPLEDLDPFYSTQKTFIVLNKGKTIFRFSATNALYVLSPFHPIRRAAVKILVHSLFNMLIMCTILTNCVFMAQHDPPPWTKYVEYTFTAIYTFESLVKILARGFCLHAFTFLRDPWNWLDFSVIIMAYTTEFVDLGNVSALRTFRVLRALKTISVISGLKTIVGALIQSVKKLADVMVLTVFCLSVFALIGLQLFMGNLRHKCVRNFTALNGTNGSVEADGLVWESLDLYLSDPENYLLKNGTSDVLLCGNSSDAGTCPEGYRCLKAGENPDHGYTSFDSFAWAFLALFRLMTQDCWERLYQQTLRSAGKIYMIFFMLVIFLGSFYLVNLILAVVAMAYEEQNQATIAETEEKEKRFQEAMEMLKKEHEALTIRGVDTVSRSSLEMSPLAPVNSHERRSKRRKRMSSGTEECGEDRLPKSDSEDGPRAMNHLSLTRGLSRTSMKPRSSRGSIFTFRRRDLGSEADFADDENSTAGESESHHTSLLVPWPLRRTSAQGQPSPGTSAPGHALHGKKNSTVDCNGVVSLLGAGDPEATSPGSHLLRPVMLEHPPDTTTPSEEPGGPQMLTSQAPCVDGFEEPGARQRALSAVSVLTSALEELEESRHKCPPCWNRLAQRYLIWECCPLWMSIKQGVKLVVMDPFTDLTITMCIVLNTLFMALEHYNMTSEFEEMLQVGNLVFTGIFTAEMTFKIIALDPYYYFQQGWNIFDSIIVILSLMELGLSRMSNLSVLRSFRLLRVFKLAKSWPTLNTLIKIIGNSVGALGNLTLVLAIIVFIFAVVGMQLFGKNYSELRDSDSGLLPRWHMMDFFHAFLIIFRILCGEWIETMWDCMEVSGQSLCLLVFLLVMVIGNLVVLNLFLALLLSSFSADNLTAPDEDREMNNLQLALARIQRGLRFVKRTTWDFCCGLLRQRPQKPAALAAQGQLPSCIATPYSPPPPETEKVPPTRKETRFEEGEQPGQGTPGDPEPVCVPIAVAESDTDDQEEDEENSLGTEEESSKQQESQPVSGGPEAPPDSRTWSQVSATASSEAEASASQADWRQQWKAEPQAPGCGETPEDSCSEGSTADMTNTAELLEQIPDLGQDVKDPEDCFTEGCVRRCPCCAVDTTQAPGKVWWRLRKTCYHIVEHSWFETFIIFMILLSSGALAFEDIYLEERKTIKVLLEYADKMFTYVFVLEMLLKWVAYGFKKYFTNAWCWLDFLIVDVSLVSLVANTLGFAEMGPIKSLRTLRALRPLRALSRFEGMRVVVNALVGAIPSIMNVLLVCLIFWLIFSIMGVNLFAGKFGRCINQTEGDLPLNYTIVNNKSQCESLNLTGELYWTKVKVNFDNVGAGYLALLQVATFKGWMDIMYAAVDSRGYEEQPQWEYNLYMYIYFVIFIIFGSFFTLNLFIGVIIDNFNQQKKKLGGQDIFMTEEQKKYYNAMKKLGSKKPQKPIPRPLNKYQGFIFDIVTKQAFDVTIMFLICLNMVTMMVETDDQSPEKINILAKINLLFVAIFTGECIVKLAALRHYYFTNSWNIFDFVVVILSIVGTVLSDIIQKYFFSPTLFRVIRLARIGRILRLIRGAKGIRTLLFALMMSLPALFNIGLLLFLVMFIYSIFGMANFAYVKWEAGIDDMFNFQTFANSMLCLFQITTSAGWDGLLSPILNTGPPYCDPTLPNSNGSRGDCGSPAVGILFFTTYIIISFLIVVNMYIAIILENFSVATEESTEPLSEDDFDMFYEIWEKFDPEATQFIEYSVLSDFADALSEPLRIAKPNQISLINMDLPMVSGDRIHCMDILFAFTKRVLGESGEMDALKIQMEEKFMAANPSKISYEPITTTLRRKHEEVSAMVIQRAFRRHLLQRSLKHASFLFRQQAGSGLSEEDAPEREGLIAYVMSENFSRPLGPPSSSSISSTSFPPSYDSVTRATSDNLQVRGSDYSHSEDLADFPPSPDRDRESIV
Experimental: as §3

[13] = target: T5, GABAA (alpha1/beta2/gamma2) (Homo sapiens, UniProt P14867+P18507+P47870); assay: ion channel blockade panel; format: cell-based; conditions: 5 μM
T5 construct: Eurofins (contract assay)
Experimental: as §3

[14] = target: T6, dopamine transporter (Rattus norvegicus, UniProt P23977); assay: uptake inhibition, rat brain synaptosomes; format: biochemical; conditions: 5 μM
T6 construct: transporters from rat brain synaptosomes; tissue Eurofins (contract assay); host or cells: rat brain synaptosomes
Experimental: as §3

[15] = target: T7, noradrenaline transporter (Rattus norvegicus, UniProt Q63380); assay: uptake inhibition, rat brain synaptosomes; format: biochemical; conditions: 5 μM
T7 construct: transporters from rat brain synaptosomes; tissue Eurofins (contract assay); host or cells: rat brain synaptosomes
Experimental: as §3

[16] = target: T8, serotonin transporter (Rattus norvegicus, UniProt P31652); assay: uptake inhibition, rat brain synaptosomes; format: biochemical; conditions: 5 μM
T8 construct: transporters from rat brain synaptosomes; tissue Eurofins (contract assay); host or cells: rat brain synaptosomes
T8 sequence (P31652 whole entry): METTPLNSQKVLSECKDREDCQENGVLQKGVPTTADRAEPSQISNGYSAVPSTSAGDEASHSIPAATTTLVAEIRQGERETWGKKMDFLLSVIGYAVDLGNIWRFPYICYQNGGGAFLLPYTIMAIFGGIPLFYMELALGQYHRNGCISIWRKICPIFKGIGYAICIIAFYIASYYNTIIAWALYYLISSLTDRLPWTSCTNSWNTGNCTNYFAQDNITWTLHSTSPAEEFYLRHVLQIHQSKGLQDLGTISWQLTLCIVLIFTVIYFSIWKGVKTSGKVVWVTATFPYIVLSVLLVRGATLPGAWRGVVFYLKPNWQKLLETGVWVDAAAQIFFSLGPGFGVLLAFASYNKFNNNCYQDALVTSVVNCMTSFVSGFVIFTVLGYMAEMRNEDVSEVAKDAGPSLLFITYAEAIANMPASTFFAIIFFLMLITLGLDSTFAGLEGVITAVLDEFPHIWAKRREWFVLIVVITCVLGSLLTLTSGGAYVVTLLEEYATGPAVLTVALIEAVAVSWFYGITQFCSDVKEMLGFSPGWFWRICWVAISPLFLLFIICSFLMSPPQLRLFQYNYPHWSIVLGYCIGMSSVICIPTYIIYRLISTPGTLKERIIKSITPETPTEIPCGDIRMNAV
Experimental: as §3

[17] = i.p. LIT-001 10 mg/kg at D1 after CFA
[18] = i.p. LIT-001 10 mg/kg at D1 after CFA, 3 h post i.p.
[19] = i.p., D1 after CFA, measured 1 hour after injection

For `Cc1cc(C(=O)N2Cc3cnn(C)c3Nc3ccccc32)ccc1CNC(=O)N1CCC[C@H]1C(=S)N(C)C` [LIT-001], the “mechanical threshold, NaCl-injected hindpaw (control animals)” value ([1]; 10 mg/kg i.p.) was 526 ± 20 g, the “mechanical threshold, hindpaw contralateral to CFA (cCFA)” value ([1]; 10 mg/kg i.p.) was 531 ± 25 g and the “antinociceptive action on contralateral hindpaw” value ([1]; 0.1-15 mg/kg i.p., mechanical and thermal heat, 1 hour after injection) was “none of the doses tested seem to exert an antinociceptive action”. For the same compound, the “relative-to-baseline AUC, mechanical threshold, CFA-injected hindpaw” value [1, 17] was 152 ± 11%, the “mechanical threshold, CFA-injected hindpaw” value [1, 18] was 246 ± 22 g and the “dose at which analgesic effect reaches a plateau, mechanical hypersensitivity” value [1, 19] was 10 mg/kg. For the same compound, the “dose of first analgesic action, mechanical hypersensitivity” value [1, 19] was 5 mg/kg, the “EC50 (hV1BR)” value ([2]; agonist mode) was “non significant” and the “agonist or antagonist effect on V1bR” value [2] was “devoid of agonist or antagonist effect”. For the same compound, the “agonist or antagonist activity at TRPV1 receptor” value [3] was “No significant agonist or antagonist; also recorded: neither LIT-001 nor the OT antagonist L-368,699 displayed any significant agonist or antagonist activity”, the “EC50 (hV1AR)” value ([4]; agonist mode) was “non significant” and the IC50 ([4]; antagonist mode, read-out: IC50, antagonism of vasopressin induced calcium release on V1aR) was 5900 nM. For the same compound, the EC50 ([5]; agonist) was 25 nM, the “Emax (hOTR)” value ([5]; efficacy) was 96% and the “agonist or antagonist activity at GPCRs” value [6] was “No significant agonist or antagonist”. The inhibition at 1 µM ([7]; 1 μM) was 9.5%, the inhibition at 10 µM ([7]; 10 μM) was 10.6% and the “thermal heat latency, NaCl-injected hindpaw (control animals)” value ([8]; 10 mg/kg i.p.) was 8.14 ± 0.48 s. The “thermal heat latency, hindpaw contralateral to CFA (cCFA)” value ([8]; 10 mg/kg i.p.) was 11 ± 0.53 s, the “relative-to-baseline AUC, thermal heat latency, CFA-injected hindpaw” value [8, 17] was 135 ± 9% and the “thermal heat withdrawal latency, CFA-injected hindpaw” value [8, 18] was 5.83 ± 0.65 s. The “dose at which analgesic effect reaches a plateau, thermal heat hypersensitivity” value [8, 19] was 10 mg/kg, the “dose of first analgesic action, thermal heat hypersensitivity” value [8, 19] was 5 mg/kg and the CFA-induced edema size [9] was 9.49 ± 0.23 mm. For the same compound, the “hERG potassium channel blockade” value [10] was “no significant blockade activity”, the “nAChR (alpha4/beta2) channel blockade” value [11] was “no significant blockade activity” and the “Vav1.5 sodium channel blockade” value [12] was “no significant blockade activity”. For the same compound, the “GABAA (alpha1/beta2/gamma2) channel blockade” value [13] was “no significant blockade activity”, the dopamine uptake blockade [14] was “no significant uptake blockade” and the noradrenaline uptake blockade [15] was “no significant uptake blockade”. For the same compound, the serotonin uptake blockade [16] was “no significant uptake blockade”.
